Results taken from patent US20240207410A1, “STABILIZED LIQUID COMPOSITIONS COMPRISING A LEVODOPA-TYROSINE CONJUGATE AND USES THEREOF” (NeuroDerm, Ltd., priority 2021, published 2024).
Converted amounts (≈) assume the structure as drawn. Where a SMILES comes first, the peptide text is derived from it. [ ]: non-standard residue; d: D form. pY = N[C@@H](Cc1ccc(OP(=O)(O)O)cc1)C(=O)O; Dopa = N[C@@H](Cc1ccc(O)c(O)c1)C(=O)O

Tests used:
Format in all cases: physicochemical
[1] = Long-term stability of 30% LD-Tyrosine/0.75% carbidopa at 2-8° C.
Protocol: The formulation also included 0.5% ascorbic acid (Asc), 0.5% N-acetyl cysteine (NAC) and 0.3% Tween 80. The formulation was stored at 2-8° C. for the time indicated, and % recovery and % LD-Tyr-DKP formation (an impurity) were tested. Percent recovery remained high over time. The DKP impurity accumulated over time.

[2] = Evaluation of solubility in water; conditions: for pH of filtrate: filtrate of the solubility test; for solubility at 24 h: thermodynamic from solid, water, shaken at 25° C. for 24 hours
Protocol: Water was added to each of the compounds to prepare a suspension, which was shaken at 25° C. for 24 hours, and then, filtration through a filter was performed to obtain a filtrate. A compound concentration in the filtrate was quantified using HPLC to obtain the solubility. Further, the pH of the filtrate was measured.

[3] = Evaluation of solution stability, pH 7.4, 25° C.; conditions: for HPLC purity difference: phosphate buffer pH 7.4, about 1 mg/mL, 25° C.
Protocol: A phosphate buffer solution at pH 7.4 was added to each of the compounds to dissolve the each of the compounds, and when necessary, a NaOH solution was added to adjust the pH of the mixture to prepare a solution of about 1 mg/mL. After storing this solution at 25° C. for about 1 day, HPLC purity (area percentage, %) was measured. The HPLC purity of the solution immediately after the preparation, or the HPLC purity of the compound, was subtracted from the HPLC purity after storage at 25° C. for about 1 day to obtain a HPLC purity difference. […] In Tables 9-1 and 9-2, “LDP-Ala” represents L-Tyrosine,N-L-alanyl-3-hydroxy-(9CI) and has the following structural formula: […]

[4] = Evaluation of solution stability, pH 7.4, 60° C.; conditions: phosphate buffer pH 7.4, about 1 mg/mL, after about 1 day
Protocol: A phosphate buffer solution at pH 7.4 was added to each of the compounds to dissolve the each of the compounds, and when necessary, a NaOH solution was added to adjust the pH of the mixture to prepare a solution of about 1 mg/mL. After storing this solution at 60° C. for about 1 day, HPLC purity (area percentage, %) was measured. The HPLC purity of the solution immediately after the preparation, or the HPLC purity of the compound, was subtracted from the HPLC purity after storage at 60° C. for about 1 day to obtain a HPLC purity difference.

| SMILES | pH of filtrate [2] | solubility at 24 h [2] | stability in aqueous solutions near neutrality [3] | HPLC purity difference ([3]; after about 1 day) | HPLC purity difference [4] | further results |
| --- | --- | --- | --- | --- | --- | --- |
| C[C@@](Cc1ccc(O)c(O)c1)(NN)C(=O)O [Carbidopa, carbidopa, reference compound] |  |  |  |  |  | mg/mL (concentration in formulation) ([1]; 1 month): 7.32 mg/mL; mg/mL (concentration in formulation) ([1]; 1 week): 7.36 mg/mL; mg/mL (concentration in formulation) ([1]; 2 months): 7.32 mg/mL; mg/mL (concentration in formulation) ([1]; 2 weeks): 7.30 mg/mL; mg/mL (concentration in formulation) ([1]; 3 months): 7.35 mg/mL; mg/mL (concentration in formulation) ([1]; t = 0): 7.37 mg/mL |
| C[C@H](N)C(=O)N[C@@H](Cc1ccc(OP(=O)(O)O)c(O)c1)C(=O)O [Example 1, (2S)-2-[[(2S)-2-aminopropanoyl]amino]-3-(3-hydroxy-4-phosphonooxyphenyl) propanoic acid] | 2.6 | 15.6 mg/mL (≈ 44.8 mM) | stable | −0.03% | −1.61% |  |
| N[C@@H](Cc1ccc(O)c(O)c1)C(=O)N[C@@H](Cc1ccc(OP(=O)(O)O)c(O)c1)C(=O)O [Example 2, (2S)-2-[[(2S)-2-amino-3-(3,4-dihydroxyphenyl)propanoyl]amino]-3-(3-hydroxy-4-phosphonooxyphenyl) propanoic acid] | 2.6 | > 31.1 mg/mL |  | −3.53% |  |  |
| NCCCC[C@H](N)C(=O)N[C@@H](Cc1ccc(OP(=O)(O)O)c(O)c1)C(=O)O [Example 8, (2S)-2-[[(2S)-2,6-diaminohexanoyl]amino]-3-(3-hydroxy-4-phosphonooxyphenyl) propanoic acid] |  |  | stable |  |  | HPLC purity difference ([3]; after 1.9 days): 0.25 (after 1.9 days) % |
| N[C@@H](Cc1ccc(OP(=O)(O)O)cc1)C(=O)N[C@@H](Cc1ccc(O)c(O)c1)C(=O)O [Example 10, (2S)-2-[[(2S)-2-amino-3-(4-phosphonooxyphenyl)propanoyl]amino]-3-(3,4-dihydroxyphenyl) propanoic acid] (H-[pY]-[Dopa]-OH) |  |  |  | −0.67% |  |  |
| C[C@H](N)C(=O)N[C@@H](Cc1ccc(O)c(O)c1)C(=O)O [LDP-Ala, L-Tyrosine,N-L-alanyl-3-hydroxy-(9CI), reference compound] (H-Ala-[Dopa]-OH) |  |  |  | −3.80% | −25.00% |  |
